Series [1] deals with T1, Peroxisome proliferator-activated receptor alpha (Rattus norvegicus, UniProt P37230).
T1 sequence (P37230 whole entry): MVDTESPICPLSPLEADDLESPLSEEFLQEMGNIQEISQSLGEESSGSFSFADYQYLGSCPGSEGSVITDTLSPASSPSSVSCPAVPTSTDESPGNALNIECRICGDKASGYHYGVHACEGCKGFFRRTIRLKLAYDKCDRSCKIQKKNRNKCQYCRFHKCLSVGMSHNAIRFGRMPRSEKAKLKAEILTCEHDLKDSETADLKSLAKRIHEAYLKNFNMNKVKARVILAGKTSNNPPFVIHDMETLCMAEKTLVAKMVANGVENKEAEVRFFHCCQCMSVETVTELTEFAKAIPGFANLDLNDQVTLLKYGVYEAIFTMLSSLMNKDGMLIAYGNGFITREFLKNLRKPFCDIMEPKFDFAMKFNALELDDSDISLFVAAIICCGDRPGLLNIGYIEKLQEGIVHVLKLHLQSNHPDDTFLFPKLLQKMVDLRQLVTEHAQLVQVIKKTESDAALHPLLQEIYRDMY
Put plainly: Agonist activity at rat PPARalpha in rat H4IIE cells assessed as gene induction. Format: functional, cell-based.

For series [2], the target named is T2, Peroxisome proliferator-activated receptor alpha (Homo sapiens, UniProt Q07869).
T2 sequence (Q07869 whole entry): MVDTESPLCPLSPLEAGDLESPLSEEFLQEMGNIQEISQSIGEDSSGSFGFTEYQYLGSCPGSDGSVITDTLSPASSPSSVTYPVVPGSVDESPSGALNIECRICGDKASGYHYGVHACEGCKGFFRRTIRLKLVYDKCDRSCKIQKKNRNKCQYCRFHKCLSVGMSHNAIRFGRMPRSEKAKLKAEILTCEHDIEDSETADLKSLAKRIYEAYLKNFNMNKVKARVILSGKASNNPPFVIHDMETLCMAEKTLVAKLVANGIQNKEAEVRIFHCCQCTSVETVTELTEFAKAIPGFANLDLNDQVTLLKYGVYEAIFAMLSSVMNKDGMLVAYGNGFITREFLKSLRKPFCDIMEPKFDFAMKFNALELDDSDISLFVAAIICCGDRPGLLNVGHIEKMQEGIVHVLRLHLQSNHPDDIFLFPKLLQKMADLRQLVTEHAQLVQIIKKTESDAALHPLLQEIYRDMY
The series is described as follows: Agonist activity at PPARalpha expressed in HEK293 cells by GAL4 transactivation assay. Format: functional, cell-based.

Series [3] has as its target T3, Peroxisome proliferator-activated receptor delta (Homo sapiens, UniProt Q03181).
T3 sequence (Q03181 whole entry): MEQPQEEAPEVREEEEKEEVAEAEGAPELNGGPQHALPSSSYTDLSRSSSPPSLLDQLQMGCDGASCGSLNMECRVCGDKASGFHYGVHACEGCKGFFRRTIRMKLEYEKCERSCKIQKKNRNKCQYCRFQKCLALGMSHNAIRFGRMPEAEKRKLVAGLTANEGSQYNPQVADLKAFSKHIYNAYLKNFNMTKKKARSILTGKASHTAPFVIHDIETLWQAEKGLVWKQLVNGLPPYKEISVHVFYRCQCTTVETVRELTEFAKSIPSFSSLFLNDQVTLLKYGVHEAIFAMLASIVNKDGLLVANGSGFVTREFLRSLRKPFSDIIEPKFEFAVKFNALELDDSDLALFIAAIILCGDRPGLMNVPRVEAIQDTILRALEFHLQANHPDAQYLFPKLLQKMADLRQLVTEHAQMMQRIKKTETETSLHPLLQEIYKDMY
The series is described as follows: Agonist activity at PPARdelta expressed in HEK293 cells by GAL4 transactivation assay. The format is functional, cell-based.

Series [4] has as its target T4, Peroxisome proliferator-activated receptor gamma (Homo sapiens) (UniProt P37231).
T4 sequence (whole entry): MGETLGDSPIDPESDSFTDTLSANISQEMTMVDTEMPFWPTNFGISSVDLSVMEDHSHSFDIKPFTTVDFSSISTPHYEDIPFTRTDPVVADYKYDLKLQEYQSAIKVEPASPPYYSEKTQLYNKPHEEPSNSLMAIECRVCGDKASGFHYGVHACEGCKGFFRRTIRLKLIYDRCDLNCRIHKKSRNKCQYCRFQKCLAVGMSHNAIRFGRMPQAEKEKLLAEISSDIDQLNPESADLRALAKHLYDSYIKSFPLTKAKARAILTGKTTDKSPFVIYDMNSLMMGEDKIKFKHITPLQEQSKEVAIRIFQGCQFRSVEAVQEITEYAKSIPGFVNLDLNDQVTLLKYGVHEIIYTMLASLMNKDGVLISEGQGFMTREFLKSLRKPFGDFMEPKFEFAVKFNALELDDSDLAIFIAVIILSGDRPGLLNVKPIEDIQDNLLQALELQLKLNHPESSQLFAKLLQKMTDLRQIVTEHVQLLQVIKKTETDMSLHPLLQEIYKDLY
Put plainly: Agonist activity at PPARgamma expressed in HEK293 cells assessed as aP2 gene induction relative to BRL-49653. The format is functional, cell-based.

For series [5], the target named is T5, Peroxisome proliferator-activated receptor gamma (Homo sapiens, UniProt P37231).
T5 sequence (P37231 whole entry): T4 sequence (whole entry)
Description: Agonist activity at PPARgamma expressed in HEK293 cells by GAL4 transactivation assay

The subject of series [6] is Mus musculus. The series is described as follows: Reduction in insulin levels in db/db mouse plasma at 0.1 mg/kg, po after 11 days. Also noted: scale not given: the % may be the effect or the level left.
Series [7] has as its system Mus musculus. The series is described as follows: Reduction in glucose levels in db/db mouse plasma at 0.1 mg/kg, po after 11 days. Also noted: scale not given: the % may be the effect or the level left.
The subject of series [8] is Mus musculus. The series is described as follows: Reduction in triglyceride levels in db/db mouse plasma at 0.1 mg/kg, po after 11 days. The arrangement: scale not given: the % may be the effect or the level left.
Series [9] can be described thus: Metabolic stability in human liver microsomes at 5 uM. The format is ADME, Microsome. (Liver microsomes are vesicles of endoplasmic reticulum, rich in cytochrome P450 enzymes.)
The nature of series [10]: Cmax in Sprague-Dawley rat at 3 mg/kg, iv or 30 mg/kg, po. Format: ADME, organism-based. The following applies: in vivo.
Series [11] is described as follows: AUC in Sprague-Dawley rat at 3 mg/kg, iv or 30 mg/kg, po. Format: ADME, organism-based. The following applies: plasma.
Series [12] in a line: Half life at terminal phase in Sprague-Dawley rat at 30 mg/kg, po. The format is ADME, organism-based. The settings on record: in vivo, read-out: beta t1/2 (converted). Also noted: dose 30 mg/kg, route oral.
Series [13] is described as follows: Total clearance in Sprague-Dawley rat at 3 mg/kg, iv or 30 mg/kg, po. The format is ADME, organism-based. The following applies: in vivo.
Series [14] in a line: Oral bioavailability in Sprague-Dawley rat at 30 mg/kg. The following applies: in vivo. Format: ADME, organism-based.
In series [15] the test system is Mus musculus. Put plainly: Reduction in body weight of db/db mouse at 1 mg/kg, po after 11 days. Also noted: scale not given: the % may be the effect or the level left.
Series [16] relates to Mus musculus. The series is described as follows: Reduction in glucose levels in db/db mouse plasma at 1 mg/kg, po after 11 days. Also noted: scale not given: the % may be the effect or the level left.
Series [17] concerns Mus musculus. The series is described as follows: Reduction in insulin levels in db/db mouse plasma at 1 mg/kg, po after 11 days. Also noted: scale not given: the % may be the effect or the level left.
The subject of series [18] is Mus musculus. The series is described as follows: Reduction in triglyceride levels in db/db mouse plasma at 1 mg/kg, po after 11 days. The arrangement: scale not given: the % may be the effect or the level left.

Some results are limits rather than exact numbers.

Broadly, the EC50 is the concentration needed to bring the measured effect to its halfway point. In general, Cmax refers to the peak of the concentration-time curve. The term AUC denotes concentration integrated over time. What is called bioavailability is dose-corrected exposure relative to a reference, in per cent.

Consider `CCN(C(=O)Nc1ccc(OC(F)(F)F)cc1)[C@@H]1Cc2ccc(SC(C)(C)C(=O)O)cc2C1`, for which the EC50 is 2 nM in [1], 170 nM in series [2], 2100 nM in series [3] and greater than 10000 nM in series [5]. In addition, the Activity in [4] was found to be 3.8%; in the series with Mus musculus [6] it was 49%; in the series with Mus musculus [7], 16%; in the series on Mus musculus [8], 43%.
For the compound `CCCCCCCN(CCc1ccc(SC(C)(C)C(=O)O)cc1)C(=O)Nc1ccc(F)cc1F` [GSK-9578], the half-maximal effective concentration (EC50) worked out at 166 nM in series [1] and 150 nM in [3]. The Activity in series [4] amounted to 0.46%.
`CCN(C(=O)Nc1ccc(OC(F)(F)F)cc1)C1Cc2ccc(SC(C)(C)C(=O)O)cc2C1` (configuration not stated): the EC50 in series [1] came out at 33 nM. Besides, the half-life at 5 µM in series [9] was 1.67 h. The compound also came in with a Cmax in series [10] of 39300 ng/mL. Also, the AUC in series [11] worked out at 290 µg·h/mL. Besides, the half-life in [12] was 4 h. The compound further registered a clearance in series [13] of 0.1 mL/min/kg. The compound also registered a bioavailability in series [14] of 59%. Also, the Activity in the series with Mus musculus [15] stood at 59%; in the series on Mus musculus [16], 60%; in the series on Mus musculus [17], 53%; with Mus musculus [18], 56%.

The values above are taken from ChEMBL document CHEMBL1141364, “Design and synthesis of indane-ureido-thioisobutyric acids: A novel class of PPARalpha agonists” (Bioorg Med Chem Lett, 2007).
